Experimental findings from US20120301551A1, “COMPOUNDS AND COMPOSITIONS FOR TREATING NEURONAL DEATH OR NEUROLOGICAL DYSFUNCTION” (Neurotech Pharmaceuticals Co., Ltd., priority 2005, published 2012) are described below.

“Also recorded” adds a separate entry of the source.

The test system of series [1] is mixed cortical cell cultures containing neurons and glia. Kind of series: Fe2+-induced free radical neurotoxicity in mixed cortical cell cultures (LDH release). The class given is cell-based, mouse. The settings on record: for Fe^2+-induced free radical neurotoxicity, effect in words: 50 μM Fe^2+, 24 hr, 2-Hydroxy-TTBA or 2-Hydroxy-TPEA at doses as low as 0.3 μM, vitamin E at higher doses, Li^+ 10 mM (legend 5 mM); for IC50: Mus musculus, Neuron, 50 μM FeCl2, neuronal death 24 hr later (LDH), read-out: IC50 (50% protection against Fe^2+-induced free radical neurotoxicity); for Fe^2+-induced neuronal death (oxidative stress), effect in words: FIG. 5A: 30 μM Fe^2+, 24 h, 1 μM 2-hydroxy TTBA (submicromolar), 5 mM Li^+. The method, then:
(§1) Mouse cortical cell cultures (DIV 11-15) were exposed to 50 μM Fe^2+ or 10 mM BSO, alone or with inclusion of 5 mM Li^+. Neuronal death was analyzed 24 hr later by measuring levels of LDH released into the bathing medium, mean±SEM (n=9-12 culture wells per condition).
Mouse cortical cell cultures (DIV 11-15) were exposed to 30 μM Fe^2+ or 10 mM BSO, alone or in the presence of 1 μM 2-hydroxy TTBA, 10-100 μM vitamin E, or 5 mM Li^+.
For mixed neuron-glia culture, mouse cerebral cortices were removed from brains of the 11-15 day-old-fetal mice (E11-15), gently triturated and plated on 24 well plates (2×10^5 cells/plate) precoated with 100 μg/ml poly-D-lysine and 4 pg/ml laminin. Cultures were maintained at 37° C. in a humidified 5% CO2 atmosphere.
After 7-8 days in vitro (DIV 7-8), 10 μM cytosine arabinofuranoside (Ara-C) was included to halt overgrowth of glia. The drug treatment was carried on DIV 11-15 cortical cell culture.
Oxidative stress was induced by exposing mixed cortical cell cultures containing neurons and glia (DIV 11-15) to 50 μM FeCl2, a hydroxyl radical-producing transition metal via a Fenton reaction, or 10 mM DL-buthionine-[S,R]-sulfoximine (BSO), a glutathione depleting agent.
(In general: Release of lactate dehydrogenase indicates damage to the cell membrane.)

Series [2] shares this test system. In words: BSO-induced free radical neurotoxicity in mixed cortical cell cultures (LDH release). The class given is cell-based, mouse. Conditions: for BSO-induced free radical neurotoxicity, effect in words: 10 mM BSO, 24 hr, 2-Hydroxy-TTBA or 2-Hydroxy-TPEA at doses as low as 0.3 μM, Li^+ 10 mM (legend 5 mM); for BSO-induced neuronal death (oxidative stress), effect in words: FIG. 5A: 10 mM BSO, 24 h, 1 μM 2-hydroxy TTBA (submicromolar), 5 mM Li^+. Here is the method: Mouse cortical cell cultures (DIV 11-15) were exposed to 10 mM BSO, alone or with indicated doses of 2-Hydroxy-TTBA or 2-Hydroxy-TPEA. Neuronal death was analyzed 24 hr later by measuring levels of LDH released into the bathing medium, mean±SEM (n=9-12 culture wells per condition). *, Significant difference from BSO alone, p<0.05 using ANOVA and Student-Newman-Keuls test.
as §1
Mouse cortical cell cultures (DIV 11-15) were exposed to 30 μM Fe^2+ or 10 mM BSO, alone or in the presence of 1 μM 2-hydroxy TTBA, 10-100 μM vitamin E, or 5 mM Li^+. Neuronal death was analyzed 24 h later by measuring LDH efflux in the bathing media (mean±SEM, n=12). *, Significant difference from the relevant control (Fe^2+ or BSO alone), p<0.05 using ANOVA and Student-Newman-Keuls test.
For mixed neuron-glia culture, mouse cerebral cortices were removed from brains of the 11-15 day-old-fetal mice (E11-15), gently triturated and plated on 24 well plates (2×10^5 cells/plate) precoated with 100 μg/ml poly-D-lysine and 4 pg/ml laminin. Cultures were maintained at 37° C. in a humidified 5% CO2 atmosphere. Plating media consist of Eagles minimal essential media (MEM, Earles salts, supplied glutamine-free) supplemented with 5% horse serum, 5% fetal bovine serum, 26.5 mM bicarbonate, 2 mM glutamine, and 21 mM glucose.
After 7-8 days in vitro (DIV 7-8), 10 μM cytosine arabinofuranoside (Ara-C) was included to halt overgrowth of glia. The drug treatment was carried on DIV 11-15 cortical cell culture. Overall neuronal cell injury was assessed by measuring amount of lactate dehydrogenase (LDH) released into the bathing medium 24 hr after neurotoxic insults as previously described (Koh and Choi, J Neurosci Methods 20:83-90, 1987).
Oxidative stress was induced by exposing mixed cortical cell cultures containing neurons and glia (DIV 11-15) to 50 μM FeCl2, a hydroxyl radical-producing transition metal via a Fenton reaction, or 10 mM DL-buthionine-[S,R]-sulfoximine (BSO), a glutathione depleting agent. Widespread neuronal death was observed 24 hours later. […] Administration of vitamin E prevented Fe^2+-induced free radical neurotoxicity at higher doses. This implies that 2-Hydroxy-TTBA or 2-Hydroxy-TPEA is a potent neuroprotectant against oxidative stress.

Series [3] has as its system cortical cell cultures containing neurons and glia. In words: cyclosporine A or calyculin A-induced neuronal cell apoptosis in cortical cell cultures. Conditions: 20 μM cyclosporine A, 24 hr; 100 μM Vitamin E, 1 μM 2-hydroxy-TTBA, 1 μM 2-hydroxy-TPEA. Format: cell-based, mouse. The method, then:
Mouse cortical cell cultures (DIV 10-12) were exposed to 20 μM cyclosporine A or 10 nM calculin A, alone or with inclusion of 0.3-30 mM Li. Neuronal death was analyzed 24-28 hr later by measuring levels of LDH released into the bathing medium, mean±SEM (n=9-12 culture wells per condition).
Mouse cortical cell cultures (DIV 10-12) were exposed to 20 μM cyclosporine A, alone or with 100 μM Vitamin E, 1 μM 2-hydroxy-TTBA, or 1 μM 2-hydroxy-TPEA. Neuronal death was analyzed 24 hr later by measuring levels of LDH released into the bathing medium, mean±SEM (n=9-12 culture wells per condition).
Cortical cell cultures containing neurons and glia at 10-12 days in vitro (DIV 10-12) were exposed to 20 μM cyclosporine A (CsA) or 10 nM caliculin A (cal A). Neurons underwent widespread apoptosis 24 hr later as previously reported (McDonald et al., 1996; Ko et al., 2000). […] This implies that Li^+ and the neuroprotective drugs (vitamin E, trolox, BAS, CBAS, FBAS, TBAS, PBAS, MBAS, NPAA, NPPAA, 2-Hydroxy-TTBA, and 2-Hydroxy-TPEA) selectively prevent neuronal cell apoptosis and free radical-mediated necrosis, respectively.

The subject of another series is gastric mucous membrane. Kind of series: gastric mucous membrane damage after oral administration. Format: in vivo. Conditions: 1,000 mg/kg orally administered. The method, then:
FIG. 10 is results showing degrees of the gastric mucous membrane damage. Test samples were orally administered in a different dose. […] Aspirin was used as control.
Conventional NSAIDs have side effects causing damages to the gastric mucous membrane. Therefore, it was evaluated whether chemical 01 having anti-inflammatory effect causes the gastric damage or not. 30, 100 or 300 mg/kg of aspirin was orally administered as control.

`O=C(O)c1cc(NCCc2ccc(C(F)(F)F)cc2)ccc1O` [chemical 01, 2-Hydroxy-5-[2-(4-trifluoromethyl-phenyl)-ethylamino]-benzoic acid]: in series [1], the “Fe^2+-induced free radical neurotoxicity, effect in words” value is “nearly completely blocked” and the IC50 stood at 99 nM. In addition, in series [2], the “BSO-induced free radical neurotoxicity, effect in words” value is given as “nearly completely blocked”. In addition, in series [3], the “cyclosporine A-induced neuronal cell apoptosis, effect in words” value was “not attenuated; also recorded: do not attenuate”. Besides, the “gastric side effect (damage of the gastric mucous membrane)” value in the series with gastric mucous membrane is listed as “did not cause damage of the gastric mucous membrane”. In addition, the “gastric side effect (damage of the gastric mucous membrane)” value with gastric mucous membrane (listed as Chemical 01) is recorded as “did not cause the gastric side effect”.
Take `O=C(O)c1cc(NCc2c(F)c(F)c(C(F)(F)F)c(F)c2F)ccc1O` [2-Hydroxy-TTBA, 2-hydroxy-5-(2,3,5,6-tetrafluoro-4-trifluoromethyl-benzylamino)-benzoic acid]: the “Fe^2+-induced free radical neurotoxicity, effect in words” value in series [1] is reported as “nearly completely blocked”. Moreover, the figures for the “Fe^2+-induced neuronal death (oxidative stress), effect in words” value in series [1] (listed as 2-hydroxy TTBA) and in series [1] (listed as 2-hydroxy-TTBA) were “prevents oxidative stress” and “completely blocked”, respectively. Moreover, in series [1], the IC50 was found to be 110 nM. For the same compound, the “neuroprotective effect against Fe^2+-induced oxidative neuronal death relative to vitamin E” value in series [1] (higher than vitamin E) was found to be 220 times. For the same compound, the “BSO-induced free radical neurotoxicity, effect in words” value in series [2] is listed as “nearly completely blocked”. Besides, the “BSO-induced neuronal death (oxidative stress), effect in words” value was “prevents oxidative stress” in series [2] (listed as 2-hydroxy TTBA) and “completely blocked” in series [2] (listed as 2-hydroxy-TTBA). In addition, in series [3], the “cyclosporine A-induced neuronal cell apoptosis, effect in words” value is listed as “not attenuated; also recorded: do not attenuate”.

What is called IC50 is the concentration at which inhibition is half-maximal.
